In one experiment the test system is 鸡蛔虫. The experiment is described as follows: Chicken roundworm removal test (Test 1). Type of experiment: in vivo.
The subject of a further experiment is 巴西日园线虫. Put plainly: Anthelmintic efficacy against rat intestinal nematode (Test 3). Format: in vivo. As to conditions: male Wistar rats, 2000 larvae s.c., 10 mg/kg 7 days after infection, adult worms in small intestine counted 10 days after dosing.

The values below come from CN1119437A, “环缩酚酸肽pf1022衍生物” (Meiji Seika Kaisha Ltd, priority 1993, dated 1996).

Molecule `CC(C)C[C@H]1C(=O)O[C@H](Cc2ccc(O)cc2)C(=O)N(C)[C@@H](CC(C)C)C(=O)O[C@H](C)C(=O)N(C)[C@@H](CC(C)C)C(=O)O[C@H](Cc2ccccc2)C(=O)N(C)[C@@H](CC(C)C)C(=O)O[C@H](C)C(=O)N1C` [PF1022 E, 环—(—L—MeLeu—D—Lac—L—MeLeu—D—TYRA—L—MeLeu-D—Lac—L—Mekeu—D—PhLac)] displayed a 杀虫率 in the experiment with 鸡蛔虫 (dose 0.5 mg/kg) of 70%. Besides, the “存留虫收(average value±SD)” value in the experiment with 巴西日园线虫 came to 2175±134.4.
Consider `CC(C)CC1C(=O)OC(C)C(=O)N(C)C(CC(C)C)C(=O)OC(C)C(=O)N(C)C(CC(C)C)C(=O)OC(C)C(=O)N(C)C(CC(C)C)C(=O)OC(C)C(=O)N1C` (centres unmarked) [PF1022-002, 环—(L—meLeu—D—Lac—)4], for which, in the experiment with 巴西日园线虫, the “存留虫收(average value±SD)” value was determined as 1976.5±306.2.
Consider `CC(C)C[C@H]1OC(=O)[C@H](CC(C)C)N(C)C(=O)[C@@H](C)OC(=O)[C@H](CC(C)C)N(C)C(=O)[C@@H](Cc2ccccc2)OC(=O)[C@H](CC(C)C)N(C)C(=O)[C@@H](C)OC(=O)[C@H](CC(C)C)N(C)C1=O` [PF1022-003, 环—(—L—MeLeu—D—Lac—L—MeLeu—D—PhLac—L—Meleu—D—Lac—L—Meleu—D—LEUA)], for which, in the experiment with 鸡蛔虫 (dose 10 mg/kg), the 杀虫率 is 76%. Besides, in the experiment with 巴西日园线虫, the “存留虫收(average value±SD)” value came out at 689±48.1.
Consider `CC(C)CC1NC(=O)C(Cc2ccccc2)OC(=O)C(CC(C)C)N(C)C(=O)C(C)OC(=O)C(CC(C)C)NC(=O)C(Cc2ccccc2)OC(=O)C(CC(C)C)N(C)C(=O)C(C)OC1=O` (centres unmarked) [PF1022-218, 环—(L—MeLeu—D—PhLac—L—Leu—D—Lac)2], for which the “存留虫收(average value±SD)” value in the experiment on 巴西日园线虫 is on record as 2400±362.0.
Regarding `CC(C)C[C@@H]1NC(=O)[C@@H](C)OC(=O)[C@H](CC(C)C)N(C)C(=O)[C@@H](Cc2ccccc2)OC(=O)[C@H](CC(C)C)NC(=O)[C@@H](C)OC(=O)[C@H](CC(C)C)N(C)C(=O)[C@@H](Cc2ccccc2)OC1=O` [PF1022-219, 环—(L—MeLeu—D—Lac—L—Leu—D—PhLac)2], the “存留虫收(average value±SD)” value with 巴西日园线虫 stood at 2084.5±94.0.
As for `CC(C)CC1C(=O)OC(CC2CCCCC2)C(=O)N(C)C(CC(C)C)C(=O)OC(C)C(=O)N(C)C(CC(C)C)C(=O)OC(CC2CCCCC2)C(=O)N(C)C(CC(C)C)C(=O)OC(C)C(=O)N1C` (centres unmarked) [PF1022-ADH, 十二氢—PF 1022], the 杀虫率 in the experiment on 鸡蛔虫 (dose 5 mg/kg) stood at 30%.
In turn, `CC(C)CC1C(=O)OC(CC2CCCCC2)C(=O)N(C)C(CC(C)C)C(=O)OC(C)C(=O)N(C)C(CC(C)C)C(=O)OC(Cc2ccccc2)C(=O)N(C)C(CC(C)C)C(=O)OC(C)C(=O)N1C` (centres unmarked) [PF1022-AHH, 六氢—PF1022] showed a 杀虫率 with 鸡蛔虫 (dose 5 mg/kg) of 62%.
On to `CC(C)C[C@H]1C(=O)O[C@H](Cc2ccccc2)C(=O)N(C)[C@@H](CC(C)C)C(=O)O[C@H](C)C(=O)N(C)[C@@H](CC(C)C)C(=O)O[C@H](Cc2ccccc2)C(=O)N(C)[C@@H](CC(C)C)C(=O)O[C@H](C)C(=O)N1C` [PF1022], for which the 杀虫率 with 鸡蛔虫 (dose 0.5 mg/kg) is given as 50-70%; in the experiment with 鸡蛔虫 (dose 1.0 mg/kg), 60-86%. In addition, the “存留虫收(average value±SD)” value in the experiment on 巴西日园线虫 worked out at 403±32.5.
For “环—(L—MeLeu—D—PhLac—L—MeLeu—D—Lac—L—MeLeu—D—TYRA(OBn)—L—MeLeu—D—Lac) [PF1022-022]”, the 杀虫率 in the experiment with 鸡蛔虫 (dose 5 mg/kg) is on record as 84%.
In the case of “环—(L—MeLeu—D—VALA—L—MeLeu—D—Lac)2 [PF1022-209]”, the “存留虫收(average value±SD)” value with 巴西日园线虫 worked out at 827±388.9.
